Measurements published in the NIST ThermoML archive (doi:10.1007/s10765-011-0999-6).
Numbers after ± are expanded uncertainties.

Details: Gas, Capillary tube (Ostwald / Ubbelohde) method

N#N [nitrogen]
Details	viscosity [mPa·s]
297.22 K, 31330 kPa	0.02799 ± 0.0013
297.23 K, 40300 kPa	0.03044 ± 0.0015
297.24 K, 50620 kPa	0.03457 ± 0.0017
297.25 K, 24520 kPa	0.02464 ± 0.0011
297.25 K, 85020 kPa	0.0474 ± 0.0023
297.26 K, 70280 kPa	0.04283 ± 0.0021
297.3 K, 570 kPa	0.01774 ± 0.00078
297.32 K, 2900 kPa	0.01836 ± 0.00081
297.32 K, 4960 kPa	0.01892 ± 0.00084
297.33 K, 9020 kPa	0.0199 ± 0.0009
297.45 K, 60740 kPa	0.03906 ± 0.0019
297.46 K, 95040 kPa	0.05291 ± 0.0026
333.14 K, 10530 kPa	0.02163 ± 0.00098
333.16 K, 15340 kPa	0.0222 ± 0.001
333.22 K, 24490 kPa	0.02538 ± 0.0012
333.3 K, 34970 kPa	0.02945 ± 0.0014
333.42 K, 48850 kPa	0.03239 ± 0.0016
333.51 K, 74270 kPa	0.03968 ± 0.002
333.59 K, 95150 kPa	0.04811 ± 0.0024
400.07 K, 7230 kPa	0.02297 ± 0.001
400.07 K, 10740 kPa	0.02334 ± 0.001
400.07 K, 15630 kPa	0.02427 ± 0.0011
400.07 K, 25910 kPa	0.02639 ± 0.0012
400.07 K, 35280 kPa	0.0284 ± 0.0014
400.07 K, 47240 kPa	0.03189 ± 0.0015
400.07 K, 65020 kPa	0.03573 ± 0.0018
400.07 K, 95070 kPa	0.04385 ± 0.0022
499.24 K, 30120 kPa	0.02951 ± 0.0014
499.24 K, 48890 kPa	0.03275 ± 0.0016
499.24 K, 69570 kPa	0.03658 ± 0.0018
499.24 K, 94610 kPa	0.04084 ± 0.0021
499.43 K, 10560 kPa	0.02699 ± 0.0012

[HH] [hydrogen]
Details	viscosity [mPa·s]
294.1 K, 34430 kPa	0.00964 ± 0.00059
294.52 K, 4680 kPa	0.00901 ± 0.00043
294.91 K, 10160 kPa	0.00911 ± 0.00045
295 K, 81640 kPa	0.01139 ± 0.00093
295.01 K, 52730 kPa	0.01021 ± 0.00072
295.02 K, 99320 kPa	0.01196 ± 0.0011
333.28 K, 4940 kPa	0.00983 ± 0.00046
333.3 K, 48480 kPa	0.01055 ± 0.0007
333.31 K, 69110 kPa	0.01122 ± 0.00085
333.31 K, 94920 kPa	0.01217 ± 0.001
333.32 K, 9480 kPa	0.0099 ± 0.00048
400.1 K, 28190 kPa	0.01115 ± 0.00062
400.11 K, 4830 kPa	0.01109 ± 0.00052
400.11 K, 9190 kPa	0.01127 ± 0.00054
400.11 K, 49790 kPa	0.01163 ± 0.00075
400.12 K, 71210 kPa	0.01217 ± 0.00089
